Results on four compounds are retold here after PubChem BioAssay AID1919001 (Molecular Pharmacology Branch, DTP, NCI, 2023).
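Further: compound exposure lasted 7 days after spheroids had grown for 3 days.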

The first assay deals with 699152-130-R-J1-PDC complex spheroid growth. The assay can be described thus: Anticancer human tumor 699152-130-R-J1-PDC patient-derived pancreatic carcinoma cell line growth inhibition [AhR]. Conditions: second compound 0.316 µM; first compound 10 µM; hits give low values. The essentials:
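Spheroids combined tumor cells with HUVEC endothelial cells and human MSCs as stroma. AhR antagonists were paired with standard or investigational drugs, each dosed in half-log steps down from near clinical Cmax, or from 10 microM where Cmax was unknown.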
As usually defined, the viability, T/C is the result in the treated group divided by that in the control group, in per cent. In the case of `CC1COCCN1c1cc(C2(S(C)(=N)=O)CC2)nc(-c2ccnc3[nH]ccc23)n1` (configuration not stated) + CC(CO)NC(=O)c1cc(-c2ccc(Cl)cc2)nn(-c2cnn(C)c2)c1=O, the viability, T/C was 78.5%.

Consider `COc1cc(Nc2ncc3c(n2)-c2ccc(Cl)cc2C(c2c(F)cccc2OC)=NC3)ccc1C(=O)O` + Cc1cncc(-c2nc(NCCc3c[nH]c4ccccc34)c3ncn(C(C)C)c3n2)c1, for which the viability, T/C was 54.8%.

The assay is the same for the next values; noted with them: second compound 1 µM; first compound 0.0316 µM; hits give low values.
On to `COc1ccc([C@@H](O)c2cc(-c3ncnc4cc(N5CCOCC5)ccc34)c(F)cc2Cl)nn1` + CC(CO)NC(=O)c1cc(-c2ccc(Cl)cc2)nn(-c2cnn(C)c2)c1=O, for which the viability, T/C was 108%.

In the case of `O=C(C=Cc1cccc(S(=O)(=O)Nc2ccccc2)c1)NO` + Cc1cncc(-c2nc(NCCc3c[nH]c4ccccc34)c3ncn(C(C)C)c3n2)c1, the viability, T/C is 112%.

As for `CC1COCCN1c1cc(C2(S(C)(=N)=O)CC2)nc(-c2ccnc3[nH]ccc23)n1` (configuration not stated) + CC(CO)NC(=O)c1cc(-c2ccc(Cl)cc2)nn(-c2cnn(C)c2)c1=O, the viability, T/C was 98.6%.

`COc1cc(Nc2ncc3c(n2)-c2ccc(Cl)cc2C(c2c(F)cccc2OC)=NC3)ccc1C(=O)O` + Cc1cncc(-c2nc(NCCc3c[nH]c4ccccc34)c3ncn(C(C)C)c3n2)c1: the viability, T/C is 95.5%.

The same assay, now with this note: second compound 1 µM; first compound 0.1 µM; hits give low values.
On to `COc1ccc([C@@H](O)c2cc(-c3ncnc4cc(N5CCOCC5)ccc34)c(F)cc2Cl)nn1` + CC(CO)NC(=O)c1cc(-c2ccc(Cl)cc2)nn(-c2cnn(C)c2)c1=O, for which the viability, T/C is 100%.

With `O=C(C=Cc1cccc(S(=O)(=O)Nc2ccccc2)c1)NO` + Cc1cncc(-c2nc(NCCc3c[nH]c4ccccc34)c3ncn(C(C)C)c3n2)c1, the viability, T/C was 120%.

Turning to `CC1COCCN1c1cc(C2(S(C)(=N)=O)CC2)nc(-c2ccnc3[nH]ccc23)n1` (configuration not stated) + CC(CO)NC(=O)c1cc(-c2ccc(Cl)cc2)nn(-c2cnn(C)c2)c1=O, the viability, T/C was 101%.

For the compound `COc1cc(Nc2ncc3c(n2)-c2ccc(Cl)cc2C(c2c(F)cccc2OC)=NC3)ccc1C(=O)O` + Cc1cncc(-c2nc(NCCc3c[nH]c4ccccc34)c3ncn(C(C)C)c3n2)c1, the viability, T/C was 85.3%.

The assay is the same for the next values; noted with them: second compound 1 µM; first compound 0.316 µM; hits give low values.
On to `COc1ccc([C@@H](O)c2cc(-c3ncnc4cc(N5CCOCC5)ccc34)c(F)cc2Cl)nn1` + CC(CO)NC(=O)c1cc(-c2ccc(Cl)cc2)nn(-c2cnn(C)c2)c1=O, for which the viability, T/C was 94.2%.

As for `O=C(C=Cc1cccc(S(=O)(=O)Nc2ccccc2)c1)NO` + Cc1cncc(-c2nc(NCCc3c[nH]c4ccccc34)c3ncn(C(C)C)c3n2)c1, the viability, T/C is 121%.

Turning to `CC1COCCN1c1cc(C2(S(C)(=N)=O)CC2)nc(-c2ccnc3[nH]ccc23)n1` (configuration not stated) + CC(CO)NC(=O)c1cc(-c2ccc(Cl)cc2)nn(-c2cnn(C)c2)c1=O, the viability, T/C is 94.3%.

Regarding `COc1cc(Nc2ncc3c(n2)-c2ccc(Cl)cc2C(c2c(F)cccc2OC)=NC3)ccc1C(=O)O` + Cc1cncc(-c2nc(NCCc3c[nH]c4ccccc34)c3ncn(C(C)C)c3n2)c1, the viability, T/C is 79.5%.

Staying with this assay, now noted: second compound 1 µM; first compound 1 µM; hits give low values.
For `COc1ccc([C@@H](O)c2cc(-c3ncnc4cc(N5CCOCC5)ccc34)c(F)cc2Cl)nn1` + CC(CO)NC(=O)c1cc(-c2ccc(Cl)cc2)nn(-c2cnn(C)c2)c1=O, the viability, T/C was 74.1%.

Consider `O=C(C=Cc1cccc(S(=O)(=O)Nc2ccccc2)c1)NO` + Cc1cncc(-c2nc(NCCc3c[nH]c4ccccc34)c3ncn(C(C)C)c3n2)c1, for which the viability, T/C is 109%.

`CC1COCCN1c1cc(C2(S(C)(=N)=O)CC2)nc(-c2ccnc3[nH]ccc23)n1` (configuration not stated) + CC(CO)NC(=O)c1cc(-c2ccc(Cl)cc2)nn(-c2cnn(C)c2)c1=O: the viability, T/C was 87.9%.

Consider `COc1cc(Nc2ncc3c(n2)-c2ccc(Cl)cc2C(c2c(F)cccc2OC)=NC3)ccc1C(=O)O` + Cc1cncc(-c2nc(NCCc3c[nH]c4ccccc34)c3ncn(C(C)C)c3n2)c1, for which the viability, T/C was 69%.

The assay is the same for the next values; noted with them: second compound 1 µM; first compound 3.16 µM; hits give low values.
Take `COc1ccc([C@@H](O)c2cc(-c3ncnc4cc(N5CCOCC5)ccc34)c(F)cc2Cl)nn1` + CC(CO)NC(=O)c1cc(-c2ccc(Cl)cc2)nn(-c2cnn(C)c2)c1=O: the viability, T/C was 56.5%.

Turning to `O=C(C=Cc1cccc(S(=O)(=O)Nc2ccccc2)c1)NO` + Cc1cncc(-c2nc(NCCc3c[nH]c4ccccc34)c3ncn(C(C)C)c3n2)c1, the viability, T/C was 96.6%.

Consider `CC1COCCN1c1cc(C2(S(C)(=N)=O)CC2)nc(-c2ccnc3[nH]ccc23)n1` (configuration not stated) + CC(CO)NC(=O)c1cc(-c2ccc(Cl)cc2)nn(-c2cnn(C)c2)c1=O, for which the viability, T/C was 84%.

As for `COc1cc(Nc2ncc3c(n2)-c2ccc(Cl)cc2C(c2c(F)cccc2OC)=NC3)ccc1C(=O)O` + Cc1cncc(-c2nc(NCCc3c[nH]c4ccccc34)c3ncn(C(C)C)c3n2)c1, the viability, T/C is 59.7%.

The assay is the same for the next values; noted with them: second compound 1 µM; first compound 10 µM; hits give low values.
Turning to `COc1ccc([C@@H](O)c2cc(-c3ncnc4cc(N5CCOCC5)ccc34)c(F)cc2Cl)nn1` + CC(CO)NC(=O)c1cc(-c2ccc(Cl)cc2)nn(-c2cnn(C)c2)c1=O, the viability, T/C is 35.9%.

As for `O=C(C=Cc1cccc(S(=O)(=O)Nc2ccccc2)c1)NO` + Cc1cncc(-c2nc(NCCc3c[nH]c4ccccc34)c3ncn(C(C)C)c3n2)c1, the viability, T/C is 87.5%.

Consider `CC1COCCN1c1cc(C2(S(C)(=N)=O)CC2)nc(-c2ccnc3[nH]ccc23)n1` (configuration not stated) + CC(CO)NC(=O)c1cc(-c2ccc(Cl)cc2)nn(-c2cnn(C)c2)c1=O, for which the viability, T/C was 68%.

Turning to `COc1cc(Nc2ncc3c(n2)-c2ccc(Cl)cc2C(c2c(F)cccc2OC)=NC3)ccc1C(=O)O` + Cc1cncc(-c2nc(NCCc3c[nH]c4ccccc34)c3ncn(C(C)C)c3n2)c1, the viability, T/C was 55.5%.

Still in this assay, the particulars now being: second compound 3.16 µM; first compound 0.0316 µM; hits give low values.
With `COc1ccc([C@@H](O)c2cc(-c3ncnc4cc(N5CCOCC5)ccc34)c(F)cc2Cl)nn1` + CC(CO)NC(=O)c1cc(-c2ccc(Cl)cc2)nn(-c2cnn(C)c2)c1=O, the viability, T/C was 85%.

For `O=C(C=Cc1cccc(S(=O)(=O)Nc2ccccc2)c1)NO` + Cc1cncc(-c2nc(NCCc3c[nH]c4ccccc34)c3ncn(C(C)C)c3n2)c1, the viability, T/C was 108%.

Turning to `CC1COCCN1c1cc(C2(S(C)(=N)=O)CC2)nc(-c2ccnc3[nH]ccc23)n1` (configuration not stated) + CC(CO)NC(=O)c1cc(-c2ccc(Cl)cc2)nn(-c2cnn(C)c2)c1=O, the viability, T/C is 80.4%.

Consider `COc1cc(Nc2ncc3c(n2)-c2ccc(Cl)cc2C(c2c(F)cccc2OC)=NC3)ccc1C(=O)O` + Cc1cncc(-c2nc(NCCc3c[nH]c4ccccc34)c3ncn(C(C)C)c3n2)c1, for which the viability, T/C was 92.5%.

The same assay, now with this note: second compound 3.16 µM; first compound 0.1 µM; hits give low values.
Consider `COc1ccc([C@@H](O)c2cc(-c3ncnc4cc(N5CCOCC5)ccc34)c(F)cc2Cl)nn1` + CC(CO)NC(=O)c1cc(-c2ccc(Cl)cc2)nn(-c2cnn(C)c2)c1=O, for which the viability, T/C is 105%.

In the case of `O=C(C=Cc1cccc(S(=O)(=O)Nc2ccccc2)c1)NO` + Cc1cncc(-c2nc(NCCc3c[nH]c4ccccc34)c3ncn(C(C)C)c3n2)c1, the viability, T/C was 105%.

For the compound `CC1COCCN1c1cc(C2(S(C)(=N)=O)CC2)nc(-c2ccnc3[nH]ccc23)n1` (configuration not stated) + CC(CO)NC(=O)c1cc(-c2ccc(Cl)cc2)nn(-c2cnn(C)c2)c1=O, the viability, T/C is 112%.

On to `COc1cc(Nc2ncc3c(n2)-c2ccc(Cl)cc2C(c2c(F)cccc2OC)=NC3)ccc1C(=O)O` + Cc1cncc(-c2nc(NCCc3c[nH]c4ccccc34)c3ncn(C(C)C)c3n2)c1, for which the viability, T/C is 80.9%.

Staying with this assay, now noted: second compound 3.16 µM; first compound 0.316 µM; hits give low values.
As to `COc1ccc([C@@H](O)c2cc(-c3ncnc4cc(N5CCOCC5)ccc34)c(F)cc2Cl)nn1` + CC(CO)NC(=O)c1cc(-c2ccc(Cl)cc2)nn(-c2cnn(C)c2)c1=O, the viability, T/C is 94.9%.

Regarding `O=C(C=Cc1cccc(S(=O)(=O)Nc2ccccc2)c1)NO` + Cc1cncc(-c2nc(NCCc3c[nH]c4ccccc34)c3ncn(C(C)C)c3n2)c1, the viability, T/C is 109%.

As for `CC1COCCN1c1cc(C2(S(C)(=N)=O)CC2)nc(-c2ccnc3[nH]ccc23)n1` (configuration not stated) + CC(CO)NC(=O)c1cc(-c2ccc(Cl)cc2)nn(-c2cnn(C)c2)c1=O, the viability, T/C was 88.5%.
